Key:
Oocyte [1] = test: Inhibition of influenza A virus A/WSN/33-M2-N31S (H1N1) M2 transmembrane domain V28I mutant expressed in Xenopus laevis oocytes assessed as inhibition of channel current at 100 uM measured after 5 mins by two-electrode voltage clamp assay relative to control; assay type: cell-based
Influenza A virus = test: Antiviral activity against amantadine-sensitive influenza A virus A/WSN/33-M2-N31S (H1N1) infected in MDCK cells assessed as inhibition of virus-induced cytopathic effect incubated for 48 hrs by crystal violet/neutral red staining based assay; assay type: functional, organism-based
Oocyte [2] = test: Inhibition of influenza A virus A/WSN/33-M2-N31S (H1N1) M2 transmembrane domain V28I mutant expressed in Xenopus laevis oocytes assessed as inhibition of channel current at 100 uM measured after 2 mins by two-electrode voltage clamp assay relative to control; assay type: cell-based

CC(N)C12CC3CC(CC(C3)C1)C2 (racemic) [RIMANTADINE]
inhibition (Oocyte [1]): 93% | IC50 (Influenza A virus): 40 nM | inhibition (Oocyte [2]): 84%

NC12CC3CC(CC(C3)C1)C2 [AMANTADINE]
IC50 (Influenza A virus): 480 nM

C[C@H](N)C12CC3CC(CC(C3)C1)C2
inhibition (Oocyte [1]): 92% | IC50 (Influenza A virus): 20 nM | inhibition (Oocyte [2]): 78%

C[C@@H](N)C12CC3CC(CC(C3)C1)C2
inhibition (Oocyte [1]): 90% | IC50 (Influenza A virus): 40 nM | inhibition (Oocyte [2]): 71%

CC(C)(N)C12CC3CC(CC(C3)C1)C2
inhibition (Oocyte [1]): 80% | IC50 (Influenza A virus): 30 nM | inhibition (Oocyte [2]): 56%

— ChEMBL document CHEMBL5260804 (ACS Med Chem Lett, 2017)
